Data on seven compounds can be found in patent US10160971B2, “Methods of modulating WARS2” (NATIONAL UNIVERSITY OF SINGAPORE, priority 2014, dated 2018).

Residues, ends and D or L forms follow the SMILES beside them. *: point of attachment. Cbz = O=C(OCc1ccccc1)*

For series [1], the system named is human WARS2 mRNA. The experiment in a line: siWARS2 knock down in HEK 293 (QPCR). Type of series: cell-based. The note with it: non targeting control = 1; for WARS2 mRNA expression, Experiment 1 / WARS2 mRNA expression, Experiment 2 / WARS2 mRNA expression, Experiment 3 / WARS2 mRNA expression, Experiment 4 / WARS2 mRNA expression, Experiment 5: 120 nM siRNA, QPCR normalized to GAPDH (ddCt); for WARS2 mRNA expression, Average: average of 5 experiments. On the procedure: HEK cells were seeded the day before transfection on 10 cm dish. At a density of ˜50%, transfection was performed using RNAimax (manufacturer's protocol). siRNA was prepared by using a mixture of 120 nM siRNA and 20 μl lipofectamin RNAimax in 1 ml OPTIMEM. Cells were incubated, washed 1× with PBS, and then covered with 5 ml OPTIMEM and the lipofectamin/siRNA mixture added dropwise. Cells were incubated (6 h) and media then changed to (DMEM/10% FBS). RNA was extracted as per protocol (Qiagen). RNA quantification was assessed using Nanodrop and the quality was determined based on OD ratio 260 nm/280 nm. Reverse transcription was performed using 1 μg RNA (Biorad iScript™ cDNA synthesis protocol) and QPCR performed using the QuantiFAST SYBR green protocol.
All samples were analyzed in duplicates and the mean and standard deviation were determined. Specificity of the amplification was determined by a melting curve ranging from 60-95° C. Normalization to GAPDH was performed using the standard ddCt method.

Series [2] concerns the target T1, human cytosolic WARS (Homo sapiens, UniProt P23381).
T1 sequence (P23381 1-471): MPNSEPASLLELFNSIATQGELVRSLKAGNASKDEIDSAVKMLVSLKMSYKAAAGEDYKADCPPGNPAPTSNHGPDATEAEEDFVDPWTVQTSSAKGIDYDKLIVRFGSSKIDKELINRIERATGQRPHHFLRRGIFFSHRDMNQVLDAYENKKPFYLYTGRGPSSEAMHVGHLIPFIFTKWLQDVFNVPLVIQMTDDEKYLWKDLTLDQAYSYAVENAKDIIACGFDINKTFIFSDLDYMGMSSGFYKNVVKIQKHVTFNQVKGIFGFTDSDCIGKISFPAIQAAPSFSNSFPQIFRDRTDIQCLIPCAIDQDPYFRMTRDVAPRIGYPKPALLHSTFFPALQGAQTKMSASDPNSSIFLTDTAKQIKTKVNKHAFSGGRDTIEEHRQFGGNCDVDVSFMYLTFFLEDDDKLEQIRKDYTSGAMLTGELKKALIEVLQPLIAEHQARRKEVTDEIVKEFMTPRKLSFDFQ
The experiment in a line: WARS AMP-Glo enzyme assay. The note with it: indolmycin 10 micromolar; enzyme 200 nM; 37° C. one hour. Type of series: biochemical. On the procedure: (§1) The WARS and WARS2 enzyme assay was performed using an ATP depletion assay based on a chemilumines optimized with the AMP-Glo™ reagent (Promega) using 96-well format assay. Reaction buffer contained 25 mM Tris-HCL pH7.2, 10 mM MgCl2, 50 mM KCl, 2.5 mM dithiothreitol, 0.1 mg/mL bovine serum albumin, 0.2 mM spermine, 10 U/mL pyrophosphatase and enzyme concentration used was 200 nM. Substrate concentrations were as follows: L-tryptophan 100 μM, bulk E. coli tRNA (Sigma) 200 μg/mL and ATP 100 μM. Reaction was carried out at 37° C. for one hour, followed by adding reagent I (AMP-glo kit). The plate was incubated at room temperature for another hour. At the end of the hour the AMP detection solution was added to all the samples and incubated for one hour at room temperature. Data was collected by measuring the luminescence with the Infinite M200 microplate Reader (Tecan). Indolmycin was added at 10 micromolar concentration where indicated.

The target in series [3] is T2, human mitochondrial WARS2 (Homo sapiens, UniProt Q9UGM6).
T2 construct: GST (inferred from GSH-bead purification; made in house; own inference)
T2 sequence (Q9UGM6 19-360): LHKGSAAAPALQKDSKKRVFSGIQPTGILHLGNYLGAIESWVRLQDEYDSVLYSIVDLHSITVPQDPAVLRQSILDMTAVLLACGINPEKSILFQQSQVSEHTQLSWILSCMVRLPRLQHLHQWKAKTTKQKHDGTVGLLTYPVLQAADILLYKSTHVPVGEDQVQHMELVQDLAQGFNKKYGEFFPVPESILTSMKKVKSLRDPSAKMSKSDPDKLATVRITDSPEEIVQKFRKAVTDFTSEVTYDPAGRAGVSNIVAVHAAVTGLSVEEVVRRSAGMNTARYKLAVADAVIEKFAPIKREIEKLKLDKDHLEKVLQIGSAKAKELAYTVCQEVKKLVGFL
The experiment in a line: WARS2 AMP-Glo enzyme assay. The note with it: indolmycin 10 micromolar; enzyme 200 nM; 37° C. one hour. Type of series: biochemical. How it is done:
as §1

The test system of series [4] is RPL14a. The experiment in a line: Loss of RPL14a on WARS2 over-expression, reversal by proteasome inhibitor. Type of series: cell-based. On the procedure: Cells were lysed in cell lysis buffer (9803, Cell Signaling) containing protease inhibitor (Sigma) and phosphatase inhibitor (Halt Phosphase inhibitor Cocktail, Thermo Scientific) and PMSF (0.5 mM Active Motif). Cell lysate was then briefly sonicated and centrifuged for 10 minutes at 14,000 g (4° C.). Supernatants were retained and protein concentrations were determined using the bicinchoninic acid assay with bovine serum albumin standards. Protein samples (20 μg) were separated on 10% or 13% SDS-polyacrylamide gels, transferred to nitrocellulose membranes, and probed with antibodies as described in the figure legends. Immunoreactive bands were visualized with a horseradish peroxidase-conjugated secondary antibody using Peroxide and LumiGlo reagents (Cell Signaling).

For series [5], the system named is Wars2. The experiment in a line: In vivo knock down of Wars2 in rat eye using cholesterol modified siRNA. The note with it: F344 rats; 50 μg intravitreously; 48 hours; versus non-targeting siRNA in contralateral eye. How it is done: Both non-targeting (NT) siRNA and siWars2 were purchased from Dharmacon and formulated in the sterile siRNA buffer provided. Fifty (50) μg of siWars2 was injected intravitreously into one eye of each of three F344 rats in a total volume of 5 μl. The same dose of the NT control siRNA was injected into the contralateral eye of each animal. Retina and choroid were collected after 48 hours, and total RNA was extracted by Trizol (Ambion). cDNA was then synthesized according to the manufacturer's protocol (BioRad).
Real time PCR reactions to measure Wars2 expression were performed with the SYBRgreen mastermix (Qiagen) and normalized to GAPDH mRNA level by using the following primers: […]

Series [6] has as its system LASER-induced choroidal neovascularization (CNV). The experiment in a line: Rat model of LASER-induced choroidal neovascularization (CNV). Type of series: in vivo. The following applies: Brown Norway rats; bilateral intravitreal injection Day 3 (siRNA 100 μg/eye, Ab 5 μg/eye); fluorescein angiography Day 22. How it is done: Non-targeting siRNA (negative control), Wars2 siRNA (test agent), and anti-VEGF Ab (positive control) were administered intravitreously into the eyes of Brown Norway female rats aged 6-8 weeks, according to the following design: • Day 1: Bilateral Laser treatment to produce three (3) lesions per eye • Day 3: Bilateral intravitreal injection of negative control, positive control, or test agent • Day 22: In-vivo fluorescein angiography • Day 22: Enucleation of eyes and fixation for future histological analyses • Three (3) groups of five (5) rats were used, as set out in Table 4.
Animals were dilated with 1% Cyclogyl solution and protected from light. Following observable dilation, the animals were sedated with ketamine/xylazine. The fundus of sedated animals was observed and recorded using a Micron III small animal funduscope (Phoenix Research). Laser treatments were performed using a thermal laser which was connected through the Micron III custom laser attachment. […] The resultant fundus images were recorded and evaluated to confirm that the laser had successfully produced a bubble through the Bruch's membrane. […]
All TIFF images were quantified using computerized image-analysis software (ImageJ, NIH, USA). Lesions were then individually traced free-hand in order to quantify the area in pixels and the colour fundus photos were used as a reference for lesion location. […]

Series [7] has as its system WARS secretion. The experiment in a line: WARS secretion in HUVEC cell media. Type of series: cell-based, human. The note with it: HUVEC cells. On the procedure:
Human embryonic kidney (HEK) 293 cells were maintained in DMEM supplemented with 10% foetal calf serum and 100 U/ml penicillin and 100 μg/ml streptomycin. Human umbilical vein endothelial (HUVEC) cells and medium (EBM- and EBM-2 single Quats) were purchased from Lonza and used prior to passage 7. For plasmid transfections (for HEK293), cells were seeded a day before at 70% confluence and lipofectamine […] (InvitroGene) transfection reagents were used according to the company's instruction. For HUVEC transfection, Polyplus jetPEI-HUVEC transfection reagent (POLYPLUS-TRANSFECTION Inc. New York) was used according to the company's instruction. For gene transfer, HUVEC were grown to 80% confluence in 6-well plates or T75 flasks. Transduction of cells was performed with a multiplicity of infection (MOI) of 200 plaque-forming units (pfu) in a total volume of 1 ml (6-well plates) or 10 ml (T75 flasks) in HUVEC growth medium. […]
HUVEC cells were seeded in 6-well plates. […] The knockdown efficacy could not be determined by western blot since no antibody against WARS2 can detect endogenous WARS2, although two anti-WARS2 antibodies we made can detect WARS2 in lysates from cells expressing WARS2-flag. […]

On to “siRNA 1: Sense 5′-GCAUUCAACCUACAGGAAU-3′ (SEQ ID NO: 50), antisense 5′-AUUCCUGUAGGUUGAAUGC-3′ (SEQ ID NO: 51) (listed as RNA, chemistry not given here)”, for which, in series [1], the “WARS2 mRNA expression, Experiment 1” value amounted to 0.26; the “WARS2 mRNA expression, Experiment 2” value worked out at 0.13; the “WARS2 mRNA expression, Experiment 3” value is 0.18; the “WARS2 mRNA expression, Experiment 4” value was determined as 0.13. Also, in series [1], the “WARS2 mRNA expression, Experiment 5” value amounted to 0.14 and the “WARS2 mRNA expression, Average” value worked out at 0.17.

Take “siRNA 2: Sense 5′-CCGACAUUCUGUUGUACAA-3′ (SEQ ID NO: 52), antisense 5′-UUGUACAACAGAAUGUCGG-3′ (SEQ ID NO: 53) (listed as RNA, chemistry not given here)”: in series [1], the “WARS2 mRNA expression, Experiment 1” value stood at 0.47; the “WARS2 mRNA expression, Experiment 2” value was found to be 0.14; the “WARS2 mRNA expression, Experiment 3” value amounted to 0.13; the “WARS2 mRNA expression, Experiment 4” value is reported as 0.11. For the same compound, in series [1], the “WARS2 mRNA expression, Experiment 5” value is given as 0.09 and the “WARS2 mRNA expression, Average” value was found to be 0.19.

Turning to `CN=C1NC(=O)[C@H]([C@H](C)c2c[nH]c3ccccc23)O1` [indolmycin], in series [2], the “inhibition of WARS enzyme activity” value is given as “not human cytosolic WARS activity”. In addition, the “inhibition of WARS2 enzyme activity” value in series [3] is on record as “inhibited human mitochondrial WARS2”.

In the case of “siRNA 3: Sense 5′-GCUGGACAAGGACCAUUUA-3′ (SEQ ID NO: 54), antisense 5′-UAAAUGGUCCUUGUCCAGC-3′ (SEQ ID NO: 55) (listed as RNA, chemistry not given here)”, in series [1], the “WARS2 mRNA expression, Experiment 1” value is recorded as 0.43; the “WARS2 mRNA expression, Experiment 2” value turned out to be 0.22; the “WARS2 mRNA expression, Experiment 3” value was 0.43; the “WARS2 mRNA expression, Experiment 4” value came to 0.37. In addition, in series [1], the “WARS2 mRNA expression, Experiment 5” value is given as 0.30 and the “WARS2 mRNA expression, Average” value is on record as 0.35.

Consider `CC(C)C[C@@H](C=O)NC(=O)[C@H](CC(C)C)NC(=O)[C@H](CC(C)C)NC(=O)OCc1ccccc1` [MG132] (Cbz-Leu-Leu-Leu-aldehyde), for which, in series [4], the “loss of RPL14a caused by over-expression of WARS2” value is reported as “reversed”.

As to “Wars2 siRNA: Rat Wars2 siRNA from Dharmacon: sense 5′-GCUCCAAUCAGAAGUGAUU-3′ (SEQ ID NO: 48), antisense 5′-UCACUUCUGAUUGGAGCUU-3′ (SEQ ID NO: 49) (cholesterol-modified siRNA, position of cholesterol not given here)”, the “Wars2 expression in retina and choroid” value in series [5] is given as “greater inhibition of Wars2 expression”. Also, the extent of neovascularization result in series [6] is “significant reduction in the extent of neovascularization”.

Take `C[C@H]1CCC/C=C/[C@@H]2C[C@H](O)C[C@H]2[C@H](O)/C=C/C(=O)O1` [brefeldin A]: the “WARS secretion in presence of inhibitor of golgi-mediated secretion” value in series [7] is on record as “No effect”.
